The values below come from patent US11548939B2, “Therapeutic combinations using IGF1R pathway inhibitors, and methods to predict anti-IGF1R therapeutic efficacy” (UNIVERSITY OF PITTSBURGH-OF THE COMMONWEALTH SYSTEM OF …, priority 2018, dated 2023).

Test [1] has as its system MDA-MB-134 (MM134) ILC cells. The test can be described thus: Synergy measurement (Chou-Talalay combination index), CellTiter Glo viability, 96-well ULA plates, 6 days. The conditions noted are these: for CI: ED75 / CI: ED90: MM134, drug in combination with ICI 182,780, mean ± SEM, 3 independent experiments. (In general: Cellular ATP, detected with luciferase, serves as a proxy for viable cell number.)
Protocol: MDA-MB-134 ILC cells were plated into 96-well ULA plates and treated for 6 days with increasing doses of OSI-906 (FIG. 11A, 11B), BMS-754807 (FIGS. 11C, 11D), or BEZ235 (FIGS. 11E, 11F) in combination with increasing doses of ICI 182,780. The dose response curves (FIGS. 11A, 11C, 11E) and heat maps (FIGS. 11B, 11D, 11F) shown indicate inhibition of cell viability (CellTiter Glo). Representative experiment shown; n=3 each with 2 biological replicates per combination of doses.
Plates (2D and ultra-low attachment [ULA; Corning #3474]) were collected on day 6 and viability was measured using CellTiter Glo Viability assay (Promega #G7572). […] For synergy experiments, SUM44PE and MDA-MB-134 cells were plated in 96-well ULA plates (18,000 cells/well) in 100 μl of media/well. […] Synergy was calculated using the Median-Effect Principle and Combination Index-Isobologram Theorem (Chou-Talalay)^27. Combination index values for ED50, ED75, ED90 are shown as a mean±SEM from n=3 independent experiments.
Synergy was measured using the Median-Effect Principle and Combination-Index Isoblogram Theorem. […] Values are shown +/−SEM from 3 independent experiments each with n=2 biological replicates.

In test [2] the test system is SUM44PE ILC cells. The test is described as above. The conditions noted are these: for CI: ED75 / CI: ED90: SUM44PE, drug in combination with ICI 182,780, mean ± SEM, 3 independent experiments.
Protocol: SUM44PE ILC cells were plated into 96-well ULA plates and treated for 6 days with increasing doses of OSI-906 (FIG. 10A, 10B), BMS-754807 (FIG. 10C, 10D), or BEZ235 (FIG. 10E, 10F) in combination with increasing doses of ICI 182,780. The dose response curves (FIG. 10A, 10C, 10E) and heat maps (FIG. 10B, 10D, 10F) shown indicate inhibition of cell viability (CellTiter Glo).
For synergy experiments, SUM44PE and MDA-MB-134 cells were plated in 96-well ULA plates (18,000 cells/well) in 100 μl of media/well. […] Synergy was calculated using the Median-Effect Principle and Combination Index-Isobologram Theorem (Chou-Talalay)^27. Combination index values for ED50, ED75, ED90 are shown as a mean±SEM from n=3 independent experiments.
Synergy was measured using the Median-Effect Principle and Combination-Index Isoblogram Theorem. […] Values are shown +/−SEM from 3 independent experiments each with n=2 biological replicates. CI values <1 indicate a synergistic drug interaction.
Test [3] concerns BCK4 xenograft tumor. The test can be described thus: ILC xenograft tumor ex vivo explant culture, Ki67 staining. It counts as cell-based. Conditions: 1 μM, 72 hours, vehicle 25%, p=0.005. The method, then: (§1) FIGS. 12A, 12B, 12C, 12D, 12E and 12F show IGF1R inhibition reduces Ki67 staining in ILC tumor ex vivo culture. MM134 (FIGS. 12A, 12B, and 12C) and BCK4 (FIGS. 12D, 12E, and 12F) xenograft tumors were harvested from immunocompromised mice, minced into 1-2 mm^3 tumor chunks and then plated on gelatin sponges in 12-well plate containing 1.5 mL media. Media was treated with DMSO Vhc (FIGS. 12A and 12D) or 1 μM […] (FIGS. 12B and 12E) for 72 hours. Tumor pieces were harvested by FFPE and stained for Ki67 as a marker of proliferation. Staining was quantified for MM134 (FIG. 12C) and BCK4 (FIG. 12F) cells by counting all clearly defined nuclei in 20× images. Statistical difference was assessed using a Student's t-test (p<0.05; n=3-6). […] Nuclei were quantified by counting all clearly defined nuclei within each tissue section (n=3-6). […]

Test [4] concerns MCF-7 cells. The test can be described thus: Dose response growth assay (CellTiter Glo) in cells transfected with SCR or CDH1 siRNA. It counts as cell-based. Conditions: 6 days. An excerpt:
The CellTiter Glo assay was used to assess cell viability (relative luminescence).
CellTiter Glo assay was used to assess cell viability (relative luminescence).

In test [5] the test system is MM134 xenograft tumor. The test can be described thus: ILC xenograft tumor ex vivo explant culture, Ki67 staining. Conditions: 1 μM, 72 hours, vehicle 47%, p=0.002. It counts as cell-based, human. The method, then: as §1
Test [6] concerns ZR75.1 cells. As to the kind of experiment: Dose response growth assay (CellTiter Glo) in cells transfected with SCR or CDH1 siRNA. It counts as cell-based. Conditions: 6 days. An excerpt:
FIGS. 5A and 5B show knockdown of E-cadherin increases sensitivity to IGF1R inhibition in breast cancer cells. ZR75.1 cells were reverse transfected with SCR or CDH1 siRNA and seeded into 96-well 2D (FIG. 5A) or ULA (FIG. 5B) plates and treated with OSI-906 for 6 days. CellTiter Glo assay was used to assess cell viability (relative luminescence).

Structures are written as SMILES. Where only a bound is given, the exact number is not on record here.

Turning to `Cn1c(=O)n(-c2ccc(C(C)(C)C#N)cc2)c2c3cc(-c4cnc5ccccc5c4)ccc3ncc21` [BEZ235, 4-[2,3-dihydro-3-methyl-2-oxo-8-(3-quinolinyl)-1H-imidazo[4,5-c]quinolin-1-yl]-α,α-dimethyl-benzeneacetonitrile], in test [1], the “CI: ED75” value worked out at 0.547 ± 0.13 and the “CI: ED90” value stood at 2.885 ± 1.34. Further, in test [2], the “CI: ED75” value turned out to be 0.401 ± 0.12 and the “CI: ED90” value came out at 0.425 ± 0.12.
With `C[C@@]1(C(=O)Nc2ccc(F)nc2)CCCN1c1nc(Nc2cc(C3CC3)[nH]n2)c2cccn2n1` [BMS-754807, (2S)-1-[4-[(5-Cyclopropyl-1H-pyrazol-3-yl)amino]pyrrolo[2,1-f][1,2,4]triazin-2-yl]-N-(6-fluoro-3-pyridinyl)-2-methyl-2-Pyrrolidinecarboxamide], the Ki67 positive nuclei was 11% in test [3] and 22% in test [5]. Also, the “viability of siCDH1 cells compared to siSCR cells in response to treatment” value in test [4] (2D growth condition) was “no significant difference”; in test [4] (ULA growth condition), “decreased viability”. Further, the “CI: ED75” value in test [1] is listed as 0.230 ± 0.04; in test [2], 0.081 ± 0.04; in test [2] (listed as BMS) it was 0.081. Moreover, the “CI: ED90” value in test [1] was 0.667 ± 0.15; in test [2] it was 0.099 ± 0.04; in test [2] (listed as BMS) it was 0.099.
As to `C[C@]12CC[C@@H]3c4ccc(O)cc4C[C@@H](CCCCCCCCC[S+]([O-])CCCC(F)(F)C(F)(F)F)[C@H]3[C@@H]1CC[C@@H]2O` (stereo partly drawn) [ICI 182,780, 7α,17β-[9-[(4,4,5,5,5-Pentafluoropentyl)sulfinyl]nonyl]estra-1,3,5(10)-triene-3,17-diol], the “difference in EC50 between siSCR and siCDH1 cells” value in test [4] (2D and ULA (FIG. 6)) is recorded as “no statistical difference in EC50”. Moreover, the “minimum dose reduction index (DRI) for ICI” value is not below 2 fold in test [1] (MM134 cells, all drug combinations (OSI, BMS, BEZ), at the EC50) and not below 8 fold in test [2] (SUM44PE cells, all drug combinations (OSI, BMS, BEZ), at the EC50).
On to `C[C@]1(O)C[C@@H](c2nc(-c3ccc4ccc(-c5ccccc5)nc4c3)c3c(N)nccn32)C1` [OSI-906, cis-3-[8-amino-1-(2-phenyl-7-quinolinyl)imidazo[1,5-a]pyrazin-3-yl]-1-methyl-cyclobutanol], for which the “viability of siCDH1 cells compared to siSCR cells in response to treatment” value in test [4] (2D growth condition) is on record as “significantly decreased viability”; in test [4] (ULA growth condition), “significantly decreased viability”; in test [6] (2D growth condition) it was “not in the 2D growth condition”; in test [6] (ULA growth condition), “significantly decreased viability”. Also, the figures for the “CI: ED75” value in test [1] and in test [2] were 0.449 ± 0.18 and 0.250 ± 0.10, respectively. Further, the results for the “CI: ED90” value in test [1] and in test [2] were 0.808 ± 0.48 and 0.398 ± 0.22, respectively.
